From article PMC3479135, “Crystal Structures of Bovine CD1d Reveal Altered αGalCer Presentation and a Restricted A’ Pocket Unable to Bind Long-Chain Glycolipids” (PLoS ONE, 2012)

Target: T1, boCD1d (bovine CD1d ectodomain with boβ2M) (Bos taurus, UniProt A1L565)
T1 construct: heavy-chain ectodomain (α1-α3), endogenous leader replaced by boCD1b3 leader, C-terminal hexa-His tag, no Fc; co-expressed with bovine β2m in baculovirus/insect cells; non-covalent heterodimer; N-glycosylated at Asn20 and Asn42; with Beta-2-microglobulin
T1 sequence (A1L565 129-405): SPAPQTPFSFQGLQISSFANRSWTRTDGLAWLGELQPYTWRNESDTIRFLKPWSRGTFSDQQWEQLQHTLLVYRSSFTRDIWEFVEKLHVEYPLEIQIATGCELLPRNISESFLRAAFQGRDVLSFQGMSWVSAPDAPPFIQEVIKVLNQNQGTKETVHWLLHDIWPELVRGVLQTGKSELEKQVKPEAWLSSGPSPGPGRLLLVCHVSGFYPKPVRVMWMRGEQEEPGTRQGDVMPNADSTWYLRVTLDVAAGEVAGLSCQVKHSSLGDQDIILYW
T1 sequence (P01888 21-118 partner): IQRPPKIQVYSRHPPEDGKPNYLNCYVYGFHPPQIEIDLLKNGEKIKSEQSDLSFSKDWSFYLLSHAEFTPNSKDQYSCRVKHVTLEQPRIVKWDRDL
Test: X-ray crystal structure, […] Å; native IEF gel shift
Assay type: binding
Settings: crystallised in 20% PEG 3350, 0.2 M sodium formate; IEF loading overnight at room temperature, 100 mM Tris-HCl pH 7, no Tween 20; A' and F' pockets

For `CCCCCCCCCCCCC/C=C/[C@@H](O)[C@H](CO[C@@H]1O[C@H](COS(=O)(=O)O)[C@H](O)[C@H](OS(=O)(=O)O)[C@H]1O)NC(=O)CCCCCCCCCCC` [compound 2, C12∶0-di-sulfatide], the “X-ray crystal structure, 2.9 Å; native IEF gel shift” value was “we crystallized boCD1d in complex with synthetic C12∶0-di-sulfatide (di-SLF)”.
